The compounds below were run on LNCaP cells (assay: Cytotoxicity in LNCaP prostate cancer cell line). Details: Homo sapiens, 168 h, read-out: IC50 after 7 days.
Assay type: cell-based
Experimental: (§1) Studies were carried out on three prostate cancer cell lines: LNCaP, PC3, and DU145. […] There was not a significant difference in cytotoxicity of emetine between days 3 and 7. […] This increase is most likely due to the release of emetine from the dithiocarbamate salt over the time period. Further drug release studies at pH 5 confirmed about 45% release of emetine from the dithiocarbamate salt after 3-day incubation at this acidic pH maintained at 37° C., whereas release of emetine from the dithiocarbamate salt was not observed at physiological pH (e.g., about 7.4).
(§2) Various compounds prepared according to Examples 1-5 were studied in LNCaP, PC3, and DU145 cells.

SMILES	IC50
CCC1CN2CCc3cc(OC)c(OC)cc3C2CC1CC1c2cc(OC)c(OC)cc2CCN1C(=S)SCCCCC(=O)OC (stereo not drawn) [Compound 4l]	2310 ± 174 nM
CCCCCCNC(=S)N1CCc2cc(OC)c(OC)cc2C1CC1CC2c3cc(OC)c(OC)cc3CCN2CC1CC (stereo not drawn) [Compound 11l]	1700 ± 144 nM
CCC1CN2CCc3cc(OC)c(OC)cc3C2CC1CC1c2cc(OC)c(OC)cc2CCN1S(=O)(=O)c1ccccc1 (stereo not drawn) [Compound 8e]	2260 ± 798 nM
CCC1CN2CCc3cc(OC)c(OC)cc3C2CC1CC1c2cc(OC)c(OC)cc2CCN1C(=S)SCCC(N)=O (stereo not drawn) [Compound 4b]	> 10000 nM
CCC1CN2CCc3cc(OC)c(OC)cc3C2CC1CC1c2cc(OC)c(OC)cc2CCN1C(=S)NCc1ccccc1 (stereo not drawn) [Compound 11e]	2060 ± 438 nM
CCC1CN2CCc3cc(OC)c(OC)cc3C2CC1CC1c2cc(OC)c(OC)cc2CCN1C(=S)Nc1ccc(Br)cc1 (stereo not drawn) [Compound 11d]	339 ± 32.7 nM
CCC1CN2CCc3cc(OC)c(OC)cc3C2CC1CC1c2cc(OC)c(OC)cc2CCN1C(=S)SCc1ccccc1 (stereo not drawn) [Compound 4f]	1970 ± 88 nM
CCC1CN2CCc3cc(OC)c(OC)cc3C2CC1CC1c2cc(OC)c(OC)cc2CCN1C(=S)SCC(=O)Nc1ccc(Br)cc1 (stereo not drawn) [Compound 4g]	1700 ± 187 nM
CCC1CN2CCc3cc(OC)c(OC)cc3C2CC1CC1c2cc(OC)c(OC)cc2CCN1S(C)(=O)=O (stereo not drawn) [Compound 8b]	2100 ± 284 nM
CCCCNC(=S)N1CCc2cc(OC)c(OC)cc2C1CC1CC2c3cc(OC)c(OC)cc3CCN2CC1CC (stereo not drawn) [Compound 11k]	1310 ± 166 nM

Each compound was assayed on DU145 cells (assay: cells). Details: Homo sapiens, DU-145, 168 h, read-out: IC50 after 7 days.
Assay type: cell-based
Experimental: as §1, §2
(§3) Various compounds prepared according to Example 6 were studied in DU145 and PC3 cells. The IC50 was determined at 3, 5, and 7 days.

SMILES	IC50
CCC1CN2CCc3cc(OC)c(OC)cc3C2CC1CC1c2cc(OC)c(OC)cc2CCN1C(=S)SCCCCC(=O)OC (stereo not drawn) [Compound 4l]	2250 ± 84 nM
CCC1CN2CCc3cc(OC)c(OC)cc3C2CC1CC1c2cc(OC)c(OC)cc2CCN1S(=O)(=O)c1ccccc1 (stereo not drawn) [Compound 8e]	> 10000 nM
CCC1CN2CCc3cc(OC)c(OC)cc3C2CC1CC1c2cc(OC)c(OC)cc2CCN1C(=S)SCCC(N)=O (stereo not drawn) [Compound 4b]	> 10000 nM
CCC1CN2CCc3cc(OC)c(OC)cc3C2CC1CC1c2cc(OC)c(OC)cc2CCN1C(=S)NCc1ccccc1 (stereo not drawn) [Compound 11e]	1540 ± 254 nM
CCC1CN2CCc3cc(OC)c(OC)cc3C2CC1CC1c2cc(OC)c(OC)cc2CCN1C(=S)SCc1ccccc1 (stereo not drawn) [Compound 4f]	1980 ± 213 nM
CCC1CN2CCc3cc(OC)c(OC)cc3C2CC1CC1c2cc(OC)c(OC)cc2CCN1C(=S)SCC(=O)Nc1ccc(Br)cc1 (stereo not drawn) [Compound 4g]	2800 ± 151 nM
CCCCNC(=S)N1CCc2cc(OC)c(OC)cc2C1CC1CC2c3cc(OC)c(OC)cc3CCN2CC1CC (stereo not drawn) [Compound 11k]	6587 ± 34.8 nM

What follows are compounds tested on PC3 cells (assay: cells). Details: Homo sapiens, PC-3, 168 h, read-out: IC50 after 7 days.
Assay type: cell-based
Experimental: as §1, §2, §3

SMILES	IC50
CCC1CN2CCc3cc(OC)c(OC)cc3C2CC1CC1c2cc(OC)c(OC)cc2CCN1C(=S)SCCCCC(=O)OC (stereo not drawn) [Compound 4l]	4.86 ± 0.153 µM
CCCCCCNC(=S)N1CCc2cc(OC)c(OC)cc2C1CC1CC2c3cc(OC)c(OC)cc3CCN2CC1CC (stereo not drawn) [Compound 11l]	2.45 ± 0.323 µM
CCC1CN2CCc3cc(OC)c(OC)cc3C2CC1CC1c2cc(OC)c(OC)cc2CCN1S(=O)(=O)c1ccccc1 (stereo not drawn) [Compound 8e]	> 10 µM
CCC1CN2CCc3cc(OC)c(OC)cc3C2CC1CC1c2cc(OC)c(OC)cc2CCN1C(=S)SCCC(N)=O (stereo not drawn) [Compound 4b]	6.56 ± 1.11 µM
CCC1CN2CCc3cc(OC)c(OC)cc3C2CC1CC1c2cc(OC)c(OC)cc2CCN1C(=S)NCc1ccccc1 (stereo not drawn) [Compound 11e]	6.92 ± 0.0711 µM
CCC1CN2CCc3cc(OC)c(OC)cc3C2CC1CC1c2cc(OC)c(OC)cc2CCN1C(=S)Nc1ccc(Br)cc1 (stereo not drawn) [Compound 11d]	0.443 ± 0.0383 µM
CCC1CN2CCc3cc(OC)c(OC)cc3C2CC1CC1c2cc(OC)c(OC)cc2CCN1C(=S)SCc1ccccc1 (stereo not drawn) [Compound 4f]	1.56 ± 0.29 µM
CCC1CN2CCc3cc(OC)c(OC)cc3C2CC1CC1c2cc(OC)c(OC)cc2CCN1C(=S)SCC(=O)Nc1ccc(Br)cc1 (stereo not drawn) [Compound 4g]	2.77 ± 0.146 µM
CCC1CN2CCc3cc(OC)c(OC)cc3C2CC1CC1c2cc(OC)c(OC)cc2CCN1S(C)(=O)=O (stereo not drawn) [Compound 8b]	4.01 ± 0.868 µM
CCCCNC(=S)N1CCc2cc(OC)c(OC)cc2C1CC1CC2c3cc(OC)c(OC)cc3CCN2CC1CC (stereo not drawn) [Compound 11k]	6.92 ± 0.17 µM

— patent US11780833B2, “Emetine derivatives, prodrugs containing same, and methods of treating conditions using same” (HOWARD UNIVERSITY, priority 2011, dated 2023)
